Results from the NIST ThermoML archive (doi:10.1016/j.fluid.2018.07.012).

Conditions: Fluid (supercritical or subcritical phases), Dynamic light scattering

O=C=O [carbon dioxide]
Conditions	thermal diffusivity [m2/s]
293.55 K, 10990 kPa	4.54e-08
295.33 K, 8060 kPa	3.64e-08
295.4 K, 10050 kPa	4.04e-08
297.27 K, 7520 kPa	2.9e-08
297.45 K, 7000 kPa	2.67e-08
302.29 K, 11020 kPa	3.74e-08
302.43 K, 8030 kPa	2.25e-08
302.5 K, 8980 kPa	2.81e-08
303.34 K, 10000 kPa	3.28e-08
305.32 K, 7050 kPa	3.23e-08
305.77 K, 7510 kPa	1.22e-08
307 K, 8060 kPa	8.8e-09
307.3 K, 9050 kPa	2.14e-08
307.42 K, 10540 kPa	2.76e-08
312.35 K, 8020 kPa	2.68e-08
312.44 K, 9010 kPa	9.3e-09
313.93 K, 10020 kPa	1.71e-08
314.2 K, 11020 kPa	2.66e-08
316.1 K, 7000 kPa	6.47e-08
316.65 K, 7490 kPa	5.72e-08
317.11 K, 9010 kPa	1.99e-08
317.19 K, 10190 kPa	1.4e-08
317.56 K, 8000 kPa	4.32e-08
322.67 K, 10290 kPa	2.13e-08
323.48 K, 11000 kPa	1.97e-08
324.73 K, 9080 kPa	4.26e-08
324.99 K, 8160 kPa	6.12e-08
326.51 K, 7010 kPa	8.98e-08
326.93 K, 7480 kPa	7.92e-08
328.26 K, 11000 kPa	2.63e-08
333.11 K, 11010 kPa	3.22e-08
333.51 K, 9020 kPa	6e-08
333.97 K, 8140 kPa	8.06e-08
334.01 K, 10320 kPa	4.36e-08
336.92 K, 7000 kPa	1.08e-07
337.46 K, 7510 kPa	1.02e-07
343.12 K, 8000 kPa	9.67e-08
343.7 K, 9050 kPa	7.77e-08
343.72 K, 10060 kPa	6.38e-08
343.95 K, 10970 kPa	5.2e-08
345.99 K, 11010 kPa	5.38e-08
346.99 K, 7020 kPa	1.31e-07
347.28 K, 7500 kPa	1.17e-07
353.14 K, 10270 kPa	7.34e-08
353.95 K, 9020 kPa	9.9e-08
354.57 K, 8000 kPa	1.15e-07
356.06 K, 11030 kPa	7.11e-08
357.15 K, 7030 kPa	1.46e-07
357.37 K, 7500 kPa	1.37e-07
363.07 K, 10000 kPa	8.99e-08
363.43 K, 9020 kPa	1.07e-07
364.02 K, 8020 kPa	1.31e-07
365.89 K, 11050 kPa	8.37e-08
367.01 K, 7010 kPa	1.62e-07
367.19 K, 7600 kPa	1.54e-07
373.34 K, 10090 kPa	1.04e-07
373.59 K, 9010 kPa	1.24e-07
374.62 K, 8010 kPa	1.49e-07
375.92 K, 11040 kPa	9.69e-08
377.05 K, 7040 kPa	1.82e-07
377.25 K, 7480 kPa	1.75e-07
382.51 K, 10040 kPa	1.23e-07
383.53 K, 8040 kPa	1.66e-07
383.71 K, 9020 kPa	1.41e-07
385.64 K, 10990 kPa	1.15e-07
386.8 K, 7480 kPa	1.87e-07
386.82 K, 7010 kPa	2.09e-07
392.06 K, 10550 kPa	1.32e-07
393.82 K, 9040 kPa	1.57e-07
394.36 K, 7960 kPa	1.89e-07
395.37 K, 11030 kPa	1.23e-07
396.68 K, 7010 kPa	2.2e-07
396.85 K, 7490 kPa	2.04e-07
402.64 K, 10200 kPa	1.45e-07
403.05 K, 9020 kPa	1.66e-07
403.62 K, 8070 kPa	1.98e-07
405.15 K, 11090 kPa	1.3e-07
406.44 K, 7020 kPa	2.38e-07
406.5 K, 7500 kPa	2.2e-07
